Laboratory results published in PubChem BioAssay AID248 (DTP/NCI, 2004).
Values joined by “and” are separate entries in the source; they are usually repeats but may differ in a detail not shown here. Identical values can stand only once. Toxic doses and inconclusive results are not listed. Cut-off read from the data, not from the text of the source: active = T/C of 150% or more; inactive = T/C below 125%.

System: L1210 leukemia ip in BDF1 mice, survival T/C
Test: NCI In Vivo Anticancer Drug Screen. Data for tumor model L1210 Leukemia (intraperitoneal) in B6D2F1 (BDF1) mice
Conditions: endpoint: mean survival time, higher = longer survival
Method in brief: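 Tumor cells were implanted, animals were treated, and survival was followed. The result divides the treated measurement by the vehicle-control measurement.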

[1] = dose: 50.0 mg/kg/injection, schedule: Q01DX009 (ip), vehicle: saline
[2] = dose: 100.0 mg/kg/injection, schedule: Q01DX009 (ip), vehicle: saline
[3] = dose: 100.0 mg/kg/injection, schedule: Q04DX003 (ip), vehicle: Klucel (hydroxypropylcellulose) (HPC)
[4] = dose: 200.0 mg/kg/injection, schedule: Q01DX009 (ip), vehicle: saline
[5] = dose: 200.0 mg/kg/injection, schedule: Q04DX003 (ip), vehicle: Klucel (hydroxypropylcellulose) (HPC)
[6] = dose: 400.0 mg/kg/injection, schedule: Q04DX003 (ip), vehicle: Klucel (hydroxypropylcellulose) (HPC)
[7] = dose: 100.0 mg/kg/injection, schedule: Q01DX009 (ip), vehicle: Klucel (hydroxypropylcellulose) (HPC)
[8] = dose: 200.0 mg/kg/injection, schedule: Q01DX009 (ip), vehicle: Klucel (hydroxypropylcellulose) (HPC)
[9] = dose: 400.0 mg/kg/injection, schedule: Q01DX009 (ip), vehicle: Klucel (hydroxypropylcellulose) (HPC)
[10] = dose: 100.0 mg/kg/injection, schedule: Q01DX001 (ip), vehicle: saline
[11] = dose: 200.0 mg/kg/injection, schedule: Q01DX001 (ip), vehicle: saline
[12] = dose: 400.0 mg/kg/injection, schedule: Q01DX001 (ip), vehicle: saline
[13] = dose: 100.0 mg/kg/injection, schedule: Q01DX009 (ip), vehicle: saline with Tween-80
[14] = dose: 200.0 mg/kg/injection, schedule: Q01DX009 (ip), vehicle: saline with Tween-80
[15] = dose: 100.0 mg/kg/injection, schedule: Q01DX001 (ip), vehicle: Klucel (hydroxypropylcellulose) (HPC)
[16] = dose: 200.0 mg/kg/injection, schedule: Q01DX001 (ip), vehicle: Klucel (hydroxypropylcellulose) (HPC)
[17] = dose: 100.0 mg/kg/injection, schedule: Q04DX002 (ip), vehicle: Klucel (hydroxypropylcellulose) (HPC)

Measured: T/C

O=C(O)C(O)C(O)C(O)C(O)C(=O)O (stereo not drawn)
inactive: [1] 92 % of control | [2] 94 % of control | [3] 95 % of control | [4] 89 % of control | [5] 91 % of control | dose: 400.0 mg/kg/injection, schedule: Q01DX009 (ip), vehicle: saline 92 % of control | [6] 91 % of control | dose: 600.0 mg/kg/injection, schedule: Q01DX001 (ip), vehicle: saline 90 % of control | dose: 600.0 mg/kg/injection, schedule: Q01DX009 (ip), vehicle: saline 100 % of control | dose: 800.0 mg/kg/injection, schedule: Q01DX001 (ip), vehicle: saline 93 % of control and 90 % of control | dose: 800.0 mg/kg/injection, schedule: Q01DX009 (ip), vehicle: saline 97 % of control | dose: 1000.0 mg/kg/injection, schedule: Q01DX001 (ip), vehicle: saline 95 % of control and 88 % of control | dose: 1000.0 mg/kg/injection, schedule: Q01DX009 (ip), vehicle: saline 100 % of control

C[C@]12CC[C@H](OC(=O)Cc3ccc(N(CCCl)CCCl)cc3)CC1=CC[C@@H]1[C@@H]2CC[C@]2(C)C(=O)CC[C@@H]12
inactive: dose: 100.0 mg/kg/injection, schedule: Q04DX003 (ip), vehicle: saline with Tween-80 88 % of control | dose: 200.0 mg/kg/injection, schedule: Q04DX003 (ip), vehicle: saline with Tween-80 88 % of control | dose: 400.0 mg/kg/injection, schedule: Q04DX003 (ip), vehicle: saline with Tween-80 88 % of control

CCCn1c2ccccc2c2ccccc21
inactive: [7] 96 % of control | [8] 97 % of control | [9] 94 % of control

Cc1cn[nH]c1-c1ccccc1
inactive: dose: 50.0 mg/kg/injection, schedule: Q04DX003 (ip), vehicle: Klucel (hydroxypropylcellulose) (HPC) 107 % of control | [3] 104 % of control | [5] 94 % of control

O=[N+]([O-])c1ccc2c(c1)Cc1cc(Br)ccc1-2
inactive: [7] 106 % of control | [3] 92 % of control | [8] 95 % of control | [5] 91 % of control | [9] 98 % of control | [6] 102 % of control

O=[N+]([O-])c1ccc(NCc2ccccc2)c2nonc12
inactive: [1] 113 % of control | [2] 98 % of control | [4] 113 % of control

Cc1cc(C)c(C#[N+][O-])c(C)c1
inactive: dose: 25.0 mg/kg/injection, schedule: Q04DX003 (ip), vehicle: saline with Tween-80 93 % of control | dose: 50.0 mg/kg/injection, schedule: Q04DX003 (ip), vehicle: saline with Tween-80 98 % of control

CC(=O)Nc1ncnc2c(C3OC(COC(C)=O)C(OC(C)=O)C3OC(C)=O)[nH]nc12 (stereo not drawn)
inactive: [10] 100 % of control | [11] 97 % of control | [12] 100 % of control

O=c1cc(NCc2ccccc2[N+](=O)[O-])[nH]c(=O)[nH]1
inactive: [10] 95 % of control | [11] 100 % of control | [12] 98 % of control

CC(CCN1CCOCC1)(CN=C(N)N)c1cccc2ccccc12 (stereo not drawn)
inactive: dose: 12.5 mg/kg/injection, schedule: Q01DX009 (ip), vehicle: saline 111 % of control | dose: 25.0 mg/kg/injection, schedule: Q01DX009 (ip), vehicle: saline 97 % of control | dose: 25.0 mg/kg/injection, schedule: Q04DX002 (ip), vehicle: saline 93 % of control | [1] 100 % of control

CC1(C)CC(=O)CC(C)(C)N1O
inactive: [7] 94 % of control | [3] 101 % of control | [8] 98 % of control | [5] 94 % of control | [9] 100 % of control | [6] 94 % of control

Nc1ccccc1SCCC(=O)O
inactive: dose: 37.5 mg/kg/injection, schedule: Q04DX003 (ip), vehicle: Klucel (hydroxypropylcellulose) (HPC) 96 % of control | dose: 75.0 mg/kg/injection, schedule: Q01DX009 (ip), vehicle: saline with Tween-80 106 % of control | dose: 75.0 mg/kg/injection, schedule: Q04DX003 (ip), vehicle: Klucel (hydroxypropylcellulose) (HPC) 86 % of control | dose: 150.0 mg/kg/injection, schedule: Q01DX009 (ip), vehicle: saline with Tween-80 105 % of control | dose: 150.0 mg/kg/injection, schedule: Q04DX003 (ip), vehicle: Klucel (hydroxypropylcellulose) (HPC) 91 % of control | dose: 300.0 mg/kg/injection, schedule: Q01DX009 (ip), vehicle: saline with Tween-80 98 % of control | dose: 300.0 mg/kg/injection, schedule: Q04DX003 (ip), vehicle: Klucel (hydroxypropylcellulose) (HPC) 96 % of control

Cc1c(C)c2c(c(C)c1O)CC(CC(=O)CO)CO2 (stereo not drawn)
inactive: dose: 100.0 mg/kg/injection, schedule: Q01DX001 (ip), vehicle: saline with Tween-80 97 % of control | dose: 200.0 mg/kg/injection, schedule: Q01DX001 (ip), vehicle: saline with Tween-80 95 % of control | dose: 400.0 mg/kg/injection, schedule: Q01DX001 (ip), vehicle: saline with Tween-80 97 % of control

O=C(OCCC/C(=C\c1cc2ccccc2c2ccccc12)[N+](=O)[O-])c1ccccc1
inactive: dose: 100.0 mg/kg/injection, schedule: Q01DX001 (ip), vehicle: other 87 % of control | dose: 200.0 mg/kg/injection, schedule: Q01DX001 (ip), vehicle: other 92 % of control | dose: 400.0 mg/kg/injection, schedule: Q01DX001 (ip), vehicle: other 91 % of control

CC(=O)n1c2ccccc2c2nc3cnccc3nc21
inactive: dose: 16.0 mg/kg/injection, schedule: Q01DX005 (ip), vehicle: saline 97 % of control | dose: 32.0 mg/kg/injection, schedule: Q01DX005 (ip), vehicle: saline 97 % of control | dose: 64.0 mg/kg/injection, schedule: Q01DX005 (ip), vehicle: saline 107 % of control

CCOP(=O)(CCl)NC12CC3CC(CC(C3)C1)C2 (stereo not drawn)
inactive: [3] 96 % of control | [5] 100 % of control

CC(=O)c1ccncc1
inactive: dose: 50.0 mg/kg/injection, schedule: Q01DX001 (ip), vehicle: saline 94 % of control | [10] 89 % of control | [11] 94 % of control | [12] 94 % of control

O=C1NC(=S)S/C1=C\c1ccc(Cl)c(Cl)c1
inactive: [13] 97 % of control | [14] 95 % of control

O=Nc1c2cc3ccccc3[nH]c-2c2ccccc12
inactive: dose: 50.0 mg/kg/injection, schedule: Q01DX001 (ip), vehicle: Klucel (hydroxypropylcellulose) (HPC) 95 % of control | [15] 93 % of control | [16] 93 % of control

c1ccc(C2CC3c4ccccc4C2c2cccc[n+]23)nc1 (stereo not drawn)
inactive: [15] 101 % of control | [16] 107 % of control

O=C(N/N=C\c1c[nH]c2ccccc12)N/N=C/c1c[nH]c2ccccc12
inactive: dose: 100.0 mg/kg/injection, schedule: Q04DX002 (ip), vehicle: saline with Tween-80 97 % of control | dose: 200.0 mg/kg/injection, schedule: Q04DX002 (ip), vehicle: saline with Tween-80 104 % of control | dose: 400.0 mg/kg/injection, schedule: Q04DX002 (ip), vehicle: saline with Tween-80 97 % of control

CCCCCC(/C=C/C1C=CC(=O)C1C/C=C/CCCC(=O)OC)OC(C)=O (stereo not drawn)
inactive: [13] 100 % of control | [14] 97 % of control

C[S+](C)CC(=O)c1ccccc1
inactive: dose: 100.0 mg/kg/injection, schedule: Q04DX003 (ip), vehicle: saline 95 % of control | dose: 200.0 mg/kg/injection, schedule: Q04DX003 (ip), vehicle: saline 104 % of control

Cc1ccc(S(=O)(=O)NC(CCl)=NC2CCCCC2)cc1
inactive: [17] 96 % of control | dose: 200.0 mg/kg/injection, schedule: Q04DX002 (ip), vehicle: Klucel (hydroxypropylcellulose) (HPC) 100 % of control | dose: 400.0 mg/kg/injection, schedule: Q04DX002 (ip), vehicle: Klucel (hydroxypropylcellulose) (HPC) 103 % of control

CCN(CC)CCNC(=O)c1c2nc3c(C(=O)NCCN(CC)CC)ccc(C)c3oc-2c(C)c(=O)c1N
inactive: dose: 25.0 mg/kg/injection, schedule: Q04DX002 (ip), vehicle: Klucel (hydroxypropylcellulose) (HPC) 101 % of control | dose: 50.0 mg/kg/injection, schedule: Q04DX002 (ip), vehicle: Klucel (hydroxypropylcellulose) (HPC) 97 % of control | dose: 75.0 mg/kg/injection, schedule: Q01DX001 (ip), vehicle: carboxymethylcellulose (CMC) 105 % of control | [17] 94 % of control

CCOC(=O)c1cc(C(=O)OCC)c(C#N)c(=O)[nH]1
inactive: [7] 103 % of control | [3] 100 % of control | [8] 88 % of control | [5] 88 % of control | [9] 94 % of control | [6] 98 % of control
